Data reported in paper PMC8391104, “Molecular mechanism of Mad1 kinetochore targeting by phosphorylated Bub1” (EMBO Reports, 2021).
Residue numbers refer to the chain shown, from its start. Where a SMILES comes first, the peptide text is derived from it. [ ]: non-standard residue; d: D form. pT = C[C@@H](OP(=O)(O)O)[C@H](N)C(=O)O; pS = N[C@@H](COP(=O)(O)O)C(=O)O

Columns and labels:
[1] = target: T1, human Mad1^CTD (WT) homodimer (Homo sapiens, UniProt Q9Y6D9); experiment: ITC of Bub1^CD1 peptides binding to wild-type Mad1^CTD; settings: for binding to Mad1^CTD by ITC, in words: pH 7.5, Mad1^CTD WT
T1 construct: human Mad1^CTD homodimer (residues 597–718); double Strep His6-tag with TEV site (N, cleaved yes); made in house; host or cells: E. coli Rosetta 2 (DE3)
T1 sequence (Q9Y6D9 597-718): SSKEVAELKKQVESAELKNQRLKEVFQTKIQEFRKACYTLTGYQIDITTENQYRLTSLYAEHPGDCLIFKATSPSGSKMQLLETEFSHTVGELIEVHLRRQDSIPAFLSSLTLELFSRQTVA
Source text: (§1) The coding region of Mad1^597–719 was cloned by USER® (NEB) into a modified pRSFDuet‐1 vector (71341‐3, Sigma‐Aldrich) with an N‐terminal double Strep His6‐tag, followed by a tobacco etch virus (TEV) protease cleavage site (Demple & Linn, [1982]; Bitinaite et al, [1992]). Mad1 mutants were generated using the QuikChange™ Lightning Site‐Directed Mutagenesis Kit (Agilent), developed by Stratagene Inc. (La Jolla, CA) (Nøhr & Kristiansen, [2003]). Mad1 constructs were transformed into Rosetta™ 2 (DE3) Singles™ Competent Cells (71400, Novagen) for expression. Expression was induced with 0.5 mM IPTG and grown overnight at 18°C. Cells were lysed in 25 mM HEPES pH 8.1, 250 mM NaCl, 2 mM DTT, 5% glycerol, 2 mM EDTA supplemented with lysozyme, and Complete™ EDTA‐free protease inhibitors (Roche). Proteins were purified over a Strep‐Tactin Superflow Plus column (QIAGEN) and cleaved with TEV protease overnight at 4°C. The cleaved Mad1^CTD was then diluted to 50 mM NaCl, purified over an anion exchange (Resource Q, GE Healthcare) column, followed by size exclusion chromatography using a Superdex 75 Increase column (GE Healthcare). Mad1^CTD was concentrated to 35 mg/ml in a buffer of 20 mM HEPES pH 7.5, 100 mM NaCl and 1 mM TCEP.
Bub1^CD1 peptides were ordered from Designer Bioscience UK, at 95% purity. The full peptide sequence used in this study was (W)KVQP{pS}P{pT}VHTKEALGFIMNMFQAPTS. (W) = peptide with an additional N‐terminal tryptophan was used to confirm peptide concentration in stoichiometry studies.
Isothermal titration calorimetry (ITC) was performed using an Auto‐iTC200 instrument (Malvern Instruments, Malvern, UK) at 20°C. Mad1^CTD and Bub1^CD1 peptide mutants were dialysed into 20 mM HEPES pH 7.5, 100 mM NaCl, 1 mM TCEP. For each titration between 30–100 µM of Mad1 was pipetted into the calorimeter cell. The Bub1^CD1 peptides at 0.3–1.5 mM were titrated into the cell consisting of one 0.5 µl injection followed by 19 injections of 2 µl each. The changes in the heat released were integrated over the entire titration and fitted to a single‐site binding model using the MicroCal PEAQ‐ITC Analysis Software 1.0.0.1258 (Malvern Instruments). Titrations were performed in triplicate. Calculations for stoichiometry were based on the molar concentrations of dimeric Mad1^CTD.

[2] = target: T2, Mad1^CTD K614A (Homo sapiens, UniProt Q9Y6D9, K614A); experiment: ITC, Mad1^CTD K614A; assay type: binding; settings: 20°C, pH 7.5, K614A, average of at least three experiments ± SD
T2 construct: human Mad1^CTD homodimer (residues 597–718); double Strep His6-tag with TEV site (N, cleaved yes); made in house; host or cells: E. coli Rosetta 2 (DE3)
T2 sequence (Q9Y6D9 597-718 K614A limits assumed): T1 sequence (Q9Y6D9 597-718) with K18A
Source text: as §1
(§2) Isothermal titration calorimetry (ITC) was performed using an Auto‐iTC200 instrument (Malvern Instruments, Malvern, UK) at 20°C. […]

[3] = target: T3, Mad1^CTD K619A (Homo sapiens, UniProt Q9Y6D9, K619A); experiment: ITC, Mad1^CTD K619A; assay type: binding; settings: 20°C, pH 7.5, K619A, average of at least three experiments ± SD
T3 construct: human Mad1^CTD homodimer (residues 597–718); double Strep His6-tag with TEV site (N, cleaved yes); made in house; host or cells: E. coli Rosetta 2 (DE3)
T3 sequence (Q9Y6D9 597-718 K619A limits assumed): T1 sequence (Q9Y6D9 597-718) with K23A
Source text: as §1, §2

[4] = target: T4, Mad1^CTD Q627A (Homo sapiens, UniProt Q9Y6D9, Q627A); experiment: ITC, Mad1^CTD Q627A; assay type: binding; settings: 20°C, pH 7.5, Q627A, average of at least three experiments ± SD
T4 construct: human Mad1^CTD homodimer (residues 597–718); double Strep His6-tag with TEV site (N, cleaved yes); made in house; host or cells: E. coli Rosetta 2 (DE3)
T4 sequence (Q9Y6D9 597-718 Q627A limits assumed): T1 sequence (Q9Y6D9 597-718) with Q31A
Source text: as §1, §2

[5] = target: T5, Mad1^CTD R630A (Homo sapiens, UniProt Q9Y6D9, R630A); experiment: ITC, Mad1^CTD R630A; assay type: binding; settings: 20°C, pH 7.5, R630A, average of at least three experiments ± SD
T5 construct: human Mad1^CTD homodimer (residues 597–718); double Strep His6-tag with TEV site (N, cleaved yes); made in house; host or cells: E. coli Rosetta 2 (DE3)
T5 sequence (Q9Y6D9 597-718 R630A limits assumed): T1 sequence (Q9Y6D9 597-718) with R34A
Source text: as §1, §2

[6] = target: T6, Mad1^CTD QRRI** (Q627A, R650A, I643A, R630A) (Homo sapiens, UniProt Q9Y6D9, I643A/Q627A/R630A/R650A); experiment: ITC, Mad1^CTD QRRI** quadruple mutant; assay type: binding; settings: 20°C, pH 7.5, QRRI**, average of at least three experiments ± SD
T6 construct: human Mad1^CTD homodimer (residues 597–718); double Strep His6-tag with TEV site (N, cleaved yes); made in house; host or cells: E. coli Rosetta 2 (DE3)
T6 sequence (Q9Y6D9 597-718 Q627A/R630A/I643A/R650A limits assumed): T1 sequence (Q9Y6D9 597-718) with Q31A, R34A, I47A, R54A
Source text: as §1, §2

[7] = Peptide solubility; assay type: physicochemical; settings: Hepes buffer, aqueous buffer; 20 mM Hepes, pH 7.5, 100 mM NaCl, 1 mM TCEP, without DMSO; read-out: solubility
Protocol: Our ITC and sedimentation equilibrium experiments to measure the stoichiometry of the Mad1^CTD‐Bub1^CD1 interaction were performed with concentrations of Mad1 at 100 µM or lower, and titrating Bub1 until a twofold‐fourfold molar excess was obtained. However, our ^31P NMR experiments were conducted with around 0.25 to 0.5 mM of each, and still only one binding event was detected. […] DMSO interfered with ITC enthalpy changes and the NMR signal from DMSO obscured the protein peaks. In contrast, our Mad1^CTD‐Bub1^CD1 crystal structure was obtained through co‐crystallization of Mad1^CTD at a final concentration of 0.35 mM and Bub1^CD1 at 2.5 mM in 5% DMSO. The use of millimolar concentrations of peptide, and the presence of DMSO and isopropanol, required for Mad1^CTD‐Bub1^CD1 crystallization, may explain the association of a second peptide in the crystallized complex. […]
which are affected are already mapped out in Fig 5B, and this can be tracked across Bub1CD1 […]
We thank the reviewer for their positive and constructive comments.
1) On page 2, the first line of the third paragraph, Msp1 should be Mps1.
Response: Thank you, we have corrected this error.
2) Please provide a figure to show the omit map (2Fo−Fc map) for the BUB1 CD1 peptide.
Response: We have created a 2Fo-Fc omit map and included it in Fig EV2D and updated the figure legend accordingly. […]
2) p. 5, near bottom. The authors state that the singly phosphorylated Bub1 peptide (on Thr-461) is less soluble than the double phosphorylated peptide (also phosphorylated on Ser-459), which may explain previous reports that P-Ser-459 contributes to binding Mad1-CTD. It would be helpful if the authors could quantify this reduced solubility.
Response: We realise that our comment on the reduced solubility of the singly phosphorylated pT461 peptide is likely confusing, so we have removed this comment.
In terms of quantifying the reduced solubility, we observed an approximately 2-fold reduction of the solubility of the singly phosphorylated peptide. […]

[8] = system: 15N-labelled Mad1^CTD; experiment: NMR titration (1H,15N HSQC) of Bub1^CD1 peptides into 15N-labelled Mad1^CTD; assay type: binding, human; settings: 298K, 50 mM HEPES pH 7.0, 100 mM NaCl, 2 mM TCEP, 0.02% NaN3
Protocol: Isotopically labelled Mad1^CTD was expressed in M9 minimal media (6 g/l Na2HPO4, 3 g/l KH2PO4, 0.5 g/l NaCl) supplemented with 1.7 g/l yeast nitrogen base without NH4Cl and amino acids (Sigma Y1251). 1 g/l ^15NH4Cl and 4 g/l unlabelled glucose were supplemented for ^15N labelling. For the deuteration of nonlabile sidechain protons, cells were adapted for growth in 10, 44 and 78% deuterated media on agar plates before they were grown in large cultures supplemented with 1 g/l ^15NH4Cl and 4 g/l ^2H^13C‐glucose in 99% D2O (Sigma). Prior to NMR experiments, isotopically labelled Mad1^CTD and Bub1^CD1 peptide were dialysed into 25 mM HEPES, pH 7.0, 100 mM NaCl, 1 mM TCEP.
^1H‐detected experiments were performed on 600 and 800 MHz Avance III spectrometers, both equipped with triple resonance TCI CryoProbes (Bruker). ^31P 1D NMR spectra were recorded on a 500 MHz Avance II spectrometer equipped with a broadband BBO cryoprobe (Bruker). All spectra were collected in 50 mM HEPES, pH 7.0, 100 mM NaCl, 2 mM TCEP, 0.02% NaN3 at 298K. […] Secondary chemical shifts were calculated from the differences between observed Cα/Cβ chemical shifts and Cα/Cβ chemical shifts for random coils (Kjaergaard & Poulsen, [2011]). […]

[9] = 1H 1D NMR of free Bub1^CD1 peptides (conformation); assay type: physicochemical; settings: narrow dispersion of amide peaks, not bound to Mad1
Protocol: ^1H‐detected experiments were performed on 600 and 800 MHz Avance III spectrometers, both equipped with triple resonance TCI CryoProbes (Bruker). ^31P 1D NMR spectra were recorded on a 500 MHz Avance II spectrometer equipped with a broadband BBO cryoprobe (Bruker). All spectra were collected in 50 mM HEPES, pH 7.0, 100 mM NaCl, 2 mM TCEP, 0.02% NaN3 at 298K. Standard ^2H decoupled TROSY‐based triple resonance experiments were used for backbone resonance assignments: HNCO, HN(CA)CO, HNCA, HN(CO)CA, HNCACB, HN(CO)CACB and HN(COCA)NNH (Pervushin, [2020]). Backbone datasets were collected with 20–25% non‐uniform sampling and reconstructed using compressed sensing in MddNMR (Mayzel et al, [2014]). Topspin 3.6 (Bruker) was used for processing and NMRFAM‐Sparky 1.47 for data analysis (Lee et al, [2015]). Backbone assignments were obtained in Mars (Jung & Zweckstetter, [2004]). Secondary chemical shifts were calculated from the differences between observed Cα/Cβ chemical shifts and Cα/Cβ chemical shifts for random coils (Kjaergaard & Poulsen, [2011]). […]

[10] = set-up: method as in Zhang et al, 2017; settings: ref Zhang et al, 2017; cited from earlier work

| Kd ([1]; 20°C, 20 mM HEPES pH 7.5, 100 mM NaCl, 1 mM TCEP, 30–100 µM Mad1 in cell, 0.3–1.5 mM peptide, single-site model, average of at least three experiments ± SD) [nM] | KD at lowered peptide concentration ([1]; lowered concentration of doubly phosphorylated peptide (usual: 100 µM Mad1CTD, 1 mM peptide)) | Kd [2] [nM] | Kd [3] [µM] | Kd [4] [nM] | Kd [5] [µM] | Kd [6] [µM] | solubility [7] [µM] | binding to Mad1^CTD by ITC, in words ([1]; 20°C) | binding to Mad1^CTD by ITC, in words ([1]; 20°C, listed as unphosphorylated Bub1^CD1 peptide) | binding by NMR titration, in words [8] | Molecule | conformation of free peptide, in words [9] | conformation of unbound peptide by circular dichroism, in words [10] |
| --- | --- | --- | --- | --- | --- | --- | --- | --- | --- | --- | --- | --- | --- |
| 2700 ± 1200 | same KD | 2400 ± 430 | 10.1 ± 5.4 | 2400 ± 400 | 10.1 ± 1.3 | 24.9 ± 1.3 | ≥ 1500 |  |  |  | CC[C@H](C)[C@H](NC(=O)[C@H](Cc1ccccc1)NC(=O)CNC(=O)[C@H](CC(C)C)NC(=O)[C@H](C)NC(=O)[C@H](CCC(=O)O)NC(=O)[C@H](CCCCN)NC(=O)[C@@H](NC(=O)[C@H](Cc1c[nH]cn1)NC(=O)[C@@H](NC(=O)[C@@H](NC(=O)[C@@H]1CCCN1C(=O)[C@H](COP(=O)(O)O)NC(=O)[C@@H]1CCCN1C(=O)[C@H](CCC(N)=O)NC(=O)[C@@H](NC(=O)[C@@H](N)CCCCN)C(C)C)[C@@H](C)OP(=O)(O)O)C(C)C)[C@@H](C)O)C(=O)N[C@@H](CCSC)C(=O)N[C@@H](CC(N)=O)C(=O)N[C@@H](CCSC)C(=O)N[C@@H](Cc1ccccc1)C(=O)N[C@@H](CCC(N)=O)C(=O)N[C@@H](C)C(=O)N1CCC[C@H]1C(=O)N[C@H](C(=O)N[C@@H](CO)C(=O)O)[C@@H](C)O [pSpT CD1] (H-KVQP[pS]P[pT]VHTKEALGFIMNMFQAPTS-OH) |  |  |
|  |  |  |  |  |  |  |  | no binding | complete absence of interactions | failed to reveal Bub1‐Mad1 interactions | CD1: non‐phosphorylated Bub1^CD1 peptide (KVQPSPTVHTKEALGFIMNMFQAPTS; phosphoserine at 459, phosphothreonine at 461) | unstructured when not bound to Mad1 | unstructured but might have helical propensity that is increased with Thr461 phosphorylation |
